# From US10947389B2, “Composition, film, near infrared cut filter, laminate, pattern forming method, solid image pickup element, image display device, infrared sensor, and color filter” (FUJIFILM Corporation, priority 2016, dated 2021)
# Experiments:
# [1] = Evaluation of solubility in water at 23° C.; format: physicochemical; details: stirred for 1 hour
# Experimental: Each of the compounds was added to water at 23° C. under the atmospheric pressure, the components were stirred for 1 hour, and the solubility of the compound in water was obtained. The solubility of the compound was evaluated based on the following criteria.
# A: the solubility in water at 23° C. was 0.1 mass % or lower
# B: the solubility in water at 23° C. was higher than 0.1 mass % and 1 mass % or lower
# C: the solubility in water at 23° C. was higher than 1 mass %
# [2] = Evaluation of absorption maximum and absorbance ratio (500 nm/λmax) in solution; format: physicochemical; details: for Absorbance Ratio (500 nm/λmax) / Absorption Maximum (nm): solvent chloroform; for λmax (nm) of Second Near Infrared Absorbing Compound: as listed in Table 58
# Source text: In this specification, “having an absorption maximum in a wavelength range of 650 to 1000 nm” denotes having a maximum absorbance in a wavelength range of 650 to 1000 nm in an absorption spectrum of the near infrared absorbing compound in a solution. Examples of a measurement solvent used for the measurement of the absorption spectra of the near infrared absorbing compound in the solution include chloroform, methanol, dimethyl sulfoxide, ethyl acetate, and tetrahydrofuran. In the case of a compound which is soluble in chloroform, chloroform is used as the measurement solvent. In the case of a compound which is not soluble in chloroform, methanol is used. In addition, In the case of a compound which is not soluble in chloroform and methanol, dimethyl sulfoxide is used.
# Each of the compounds was dissolved in a measurement solvent shown in the following tables (concentration: 2.5×10^−6 mol/L) to measure an absorption spectrum (optical path length: 10 mm).
# In addition, an absorbance ratio (500 nm/λmax) as a value obtained by dividing an absorbance at a wavelength of 500 nm by an absorbance at an absorption maximum was evaluated based on the following criteria.
# A: the absorbance ratio (500 nm/λmax) was 0.04 or lower
# B: the absorbance ratio (500 nm/λmax) was higher 0.04 and 0.08 or lower
# C: the absorbance ratio (500 nm/λmax) was higher than 0.08
smiles,measurement,setting,value
CC(CCC(COc1ccc(-c2c3c(=C(C#N)c4nc5ccccc5o4)n(B(c4ccccc4)c4ccccc4)c(-c4ccc(OCC(CCC(C)CC(C)(C)C)C(C)CC(C)(C)C)cc4)c3c(=C(C#N)c3nc4ccccc4o3)n2B(c2ccccc2)c2ccccc2)cc1)C(C)CC(C)(C)C)CC(C)(C)C (centres unmarked) [II-10],Solubility,[1],A (the solubility in water at 23 °C was 0.1 mass % or lower)
same,Absorbance Ratio (500 nm/λmax),[2],A (the absorbance ratio (500 nm/λmax) was 0.04 or lower)
same,Absorption Maximum (nm),[2],740 nm
Cc1ccc2c(c1)OB(n1c(-c3cccc(OCC(CCC(C)CC(C)(C)C)C(C)CC(C)(C)C)c3)c3/c(=C(\C#N)c4nc5cc(C)ccc5o4)n(B4Oc5ccc(C)cc5O4)c(-c4cccc(OCC(CCC(C)CC(C)(C)C)C(C)CC(C)(C)C)c4)c3/c1=C(\C#N)c1nc3cc(C)ccc3o1)O2 (centres unmarked) [II-269],Solubility,[1],A (the solubility in water at 23 °C was 0.1 mass % or lower)
same,λmax (nm) of Second Near Infrared Absorbing Compound,[2],685 nm
same,Absorbance Ratio (500 nm/λmax),[2],A (the absorbance ratio (500 nm/λmax) was 0.04 or lower)
same,Absorption Maximum (nm),[2],685 nm
CC(C)CCCCCCCC(CCCCCC(C)C)COc1cccc(-c2c3c(=C(C#N)c4nc5ccccc5s4)n(B4Oc5ccccc5O4)c(-c4cccc(OCC(CCCCCCCC(C)C)CCCCCC(C)C)c4)c3c(=C(C#N)c3nc4ccccc4s3)n2B2Oc3ccccc3O2)c1 (centres unmarked) [II-589],Solubility,[1],A (the solubility in water at 23 °C was 0.1 mass % or lower)
same,λmax (nm) of Second Near Infrared Absorbing Compound,[2],719 nm
same,Absorbance Ratio (500 nm/λmax),[2],A (the absorbance ratio (500 nm/λmax) was 0.04 or lower)
same,Absorption Maximum (nm),[2],719 nm
CCCCC(CC)COc1ccc(B2N=c3/c(=C4/C(=O)C(c5ccc6cccc7c6c5NB(c5ccc(OCC(CC)CCCC)cc5)N7)=C4O)ccc4cccc(c34)N2)cc1 (centres unmarked) [Compound Q-39],Solubility,[1],A (the solubility in water at 23 °C was 0.1 mass % or lower)
same,Absorbance Ratio (500 nm/λmax),[2],A (the absorbance ratio (500 nm/λmax) was 0.04 or lower)
same,Absorption Maximum (nm),[2],822 nm
Cc1ccc2oc(C(C#N)=c3c4c(-c5ccc(OCC(CCC(C)CC(C)(C)C)C(C)CC(C)(C)C)cc5)n(B(c5ccccc5)c5ccccc5)c(=C(C#N)c5nc6cc(C)ccc6o5)c4c(-c4ccc(OCC(CCC(C)CC(C)(C)C)C(C)CC(C)(C)C)cc4)n3B(c3ccccc3)c3ccccc3)nc2c1 (centres unmarked) [II-168],Solubility,[1],A (the solubility in water at 23 °C was 0.1 mass % or lower)
same,Absorbance Ratio (500 nm/λmax),[2],A (the absorbance ratio (500 nm/λmax) was 0.04 or lower)
same,Absorption Maximum (nm),[2],745 nm
Cc1ccc2oc(C(C#N)=c3c4c(-c5ccc(OCC(CCCCCCCC(C)C)CCCCCC(C)C)cc5)n(B(c5ccccc5C)c5ccccc5C)c(=C(C#N)c5nc6cc(C)ccc6o5)c4c(-c4ccc(OCC(CCCCCCCC(C)C)CCCCCC(C)C)cc4)n3B(c3ccccc3C)c3ccccc3C)nc2c1 (centres unmarked) [II-201],Solubility,[1],A (the solubility in water at 23 °C was 0.1 mass % or lower)
same,Absorbance Ratio (500 nm/λmax),[2],A (the absorbance ratio (500 nm/λmax) was 0.04 or lower)
same,Absorption Maximum (nm),[2],737 nm
